Measurements reported in US20060069132A1, “Azolecarboxamide herbicides” (priority 2004, published 2006).

Assays:
velvetleaf = experiment: Test B pre-/postemergence herbicide test; format: in vivo, Abutilon theophrasti
Outline: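 Plants compared with untreated controls 13–15 days post-treatment and given a visual 0–100 injury score. Applications: preemergence to seeds; postemergence at 1- to 4-leaf (2–18 cm); paddy species flooded, 2-leaf stage. Vehicle non-phytotoxic, surfactant included.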

bermudagrass = experiment: Test C pre-/postemergence herbicide test; format: in vivo, Cynodon dactylon; conditions: for Plant response rating, Bermudagrass / Plant response rating (0 = no effect, 100 = complete control), Bermudagrass: preemergence
Outline: (§1)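 Visual injury scores run from 0 (no effect) to 100 (complete control), assessed relative to untreated controls 12 to 14 days after treatment in the greenhouse. Chemicals were formulated in a non-phytotoxic solvent mixture with surfactant and applied to soil after planting or to emerged plants at the 1- to 4-leaf stage.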

cocklebur = experiment: Test C pre-/postemergence herbicide test; format: in vivo, Xanthium strumarium; conditions: for Plant response rating, Cocklebur / Plant response rating (0 = no effect, 100 = complete control), Cocklebur: preemergence
Outline: as §1

large crabgrass = experiment: Test C pre-/postemergence herbicide test; format: in vivo, Digitaria sanguinalis; conditions: for Plant response rating, Crabgrass, Large / Plant response rating (0 = no effect, 100 = complete control), Crabgrass, Large: preemergence
Outline: as §1

kochia = experiment: Test C pre-/postemergence herbicide test; format: in vivo, Kochia scoparia; conditions: for Plant response rating, Kochia / Plant response rating (0 = no effect, 100 = complete control), Kochia: preemergence
Outline: as §1

yellow nutsedge = experiment: Test C pre-/postemergence herbicide test; format: in vivo, Cyperus esculentus; conditions: for Plant response rating, Nutsedge, Yellow / Plant response rating (0 = no effect, 100 = complete control), Nutsedge, Yellow: preemergence
Outline: as §1

soybean = experiment: Test C pre-/postemergence herbicide test; format: in vivo, Glycine max; conditions: for Plant response rating, Soybean / Plant response rating (0 = no effect, 100 = complete control), Soybean: preemergence
Outline: as §1

ducksalad = experiment: Test C flooded paddy test; format: in vivo, Heteranthera limosa
[1] = 500 g ai/ha, scale 0 to 100 (0 no effect, 100 complete control), visual, 12 to 14 days
[2] = 125 g ai/ha, scale 0 (no effect) to 100 (complete control), visual, 12 to 14 days
[3] = 250 g ai/ha, scale 0 to 100 (0 no effect, 100 complete control), visual, 12 to 14 days
[4] = Preemergence, 500 g ai/ha, scale 0 to 100, 0 no effect, 100 complete control

## CCC1=NN(C(C)(C)C)CC1C(=O)Nc1cc(C(=O)N(C)C)ccc1F (racemic) [Compound 343]
velvetleaf; 125 g ai/ha, 0 is no effect, 100 is complete control, preemergence
  Plant response rating (0 to 100 scale), Velvetleaf: 100
velvetleaf; 125 g ai/ha, visual rating, scale 0 (no effect) to 100 (complete control), postemergence
  Velvetleaf plant response rating: 20
velvetleaf; postemergence, 500 g ai/ha, scale 0 to 100, 0 is no effect, 100 is complete control
  Velvetleaf plant response rating: 50
bermudagrass; 62 g ai/ha, scale 0 to 100, 0 no effect, 100 complete control
  Plant response rating, Bermudagrass: 60
bermudagrass; 125 g ai/ha
  Plant response rating (0 = no effect, 100 = complete control), Bermudagrass: 70
bermudagrass; 250 g ai/ha, scale 0-100
  Plant response rating, Bermudagrass: 90
bermudagrass; [1]
  Plant response rating, Bermudagrass: 90
cocklebur; 62 g ai/ha, scale 0 to 100
  Plant response rating, Cocklebur: 30
cocklebur; 125 g ai/ha
  Plant response rating (0 = no effect, 100 = complete control), Cocklebur: 80
cocklebur; 250 g ai/ha, scale 0-100
  Plant response rating, Cocklebur: 80
cocklebur; [1]
  Plant response rating, Cocklebur: 100
Large crabgrass; 62 g ai/ha, scale 0 to 100
  Plant response rating, Crabgrass, Large: 50
Large crabgrass; 125 g ai/ha
  Plant response rating (0 = no effect, 100 = complete control), Crabgrass, Large: 80
Large crabgrass; 250 g ai/ha, scale 0-100
  Plant response rating, Crabgrass, Large: 80
Large crabgrass; [1]
  Plant response rating, Crabgrass, Large: 100
kochia; 62 g ai/ha, scale 0 to 100
  Plant response rating, Kochia: 90
kochia; 125 g ai/ha
  Plant response rating (0 = no effect, 100 = complete control), Kochia: 100
kochia; 250 g ai/ha, scale 0-100
  Plant response rating, Kochia: 100
kochia; [1]
  Plant response rating, Kochia: 100
Yellow nutsedge; 62 g ai/ha, scale 0 to 100
  Plant response rating, Nutsedge, Yellow: 5
Yellow nutsedge; 125 g ai/ha
  Plant response rating (0 = no effect, 100 = complete control), Nutsedge, Yellow: 10
Yellow nutsedge; 250 g ai/ha, scale 0-100
  Plant response rating, Nutsedge, Yellow: 60
Yellow nutsedge; [1]
  Plant response rating, Nutsedge, Yellow: 90
soybean; 62 g ai/ha, scale 0 to 100
  Plant response rating, Soybean: 40
soybean; 125 g ai/ha
  Plant response rating (0 = no effect, 100 = complete control), Soybean: 80
soybean; 250 g ai/ha, scale 0-100
  Plant response rating, Soybean: 100
soybean; [1]
  Plant response rating, Soybean: 100
ducksalad; 62 g ai/ha, scale 0 to 100
  Ducksalad plant response rating: 40
ducksalad; 125 g ai/ha, scale 0 to 100 (0 no effect, 100 complete control)
  Ducksalad plant response rating: 80
ducksalad; 250 g ai/ha, scale of 0 to 100, 0 is no effect, 100 is complete control
  Ducksalad plant response rating: 90
ducksalad; 500 g ai/ha, visual rating after 12 to 14 days, scale 0 to 100 (0 no effect, 100 complete control)
  Plant response rating, Ducksalad: 90

## CCN(C)C(=O)c1cccc(NC(=O)c2cc(C(C)(C)C)nn2CC)c1 [Compound 48]
velvetleaf; Postemergence, 500 g ai/ha, visual rating after 13 to 15 days, scale 0 (no effect) to 100 (complete control)
  Plant response rating, Velvetleaf: 80
velvetleaf; Preemergence, 500 g ai/ha, scale 0 to 100
  Velvetleaf plant response rating: 100
velvetleaf; preemergence, 125 g ai/ha, 0 to 100 scale, 0 is no effect, 100 is complete control
  Plant response rating, Velvetleaf: 90
bermudagrass; 62 g ai/ha
  Plant response rating (0 = no effect, 100 = complete control), Bermudagrass: 80
bermudagrass; [2]
  Plant response rating, Bermudagrass: 90
bermudagrass; [3]
  Plant response rating, Bermudagrass: 90
bermudagrass; [4]
  Bermudagrass plant response rating: 95
cocklebur; 62 g ai/ha
  Plant response rating (0 = no effect, 100 = complete control), Cocklebur: 0
cocklebur; [2]
  Plant response rating, Cocklebur: 0
cocklebur; [3]
  Plant response rating, Cocklebur: 0
cocklebur; [4]
  Cocklebur plant response rating: 10
Large crabgrass; 62 g ai/ha
  Plant response rating (0 = no effect, 100 = complete control), Crabgrass, Large: 0
Large crabgrass; [2]
  Plant response rating, Crabgrass, Large: 30
Large crabgrass; [3]
  Plant response rating, Crabgrass, Large: 70
Large crabgrass; [4]
  Crabgrass, Large plant response rating: 90
kochia; 62 g ai/ha
  Plant response rating (0 = no effect, 100 = complete control), Kochia: 10
kochia; [2]
  Plant response rating, Kochia: 60
kochia; [3]
  Plant response rating, Kochia: 80
kochia; [4]
  Kochia plant response rating: 100
Yellow nutsedge; 62 g ai/ha
  Plant response rating (0 = no effect, 100 = complete control), Nutsedge, Yellow: 0
Yellow nutsedge; [2]
  Plant response rating, Nutsedge, Yellow: 0
Yellow nutsedge; [3]
  Plant response rating, Nutsedge, Yellow: 10
Yellow nutsedge; [4]
  Nutsedge, Yellow plant response rating: 30
soybean; 62 g ai/ha
  Plant response rating (0 = no effect, 100 = complete control), Soybean: 0
soybean; [2]
  Plant response rating, Soybean: 0
soybean; [3]
  Plant response rating, Soybean: 0
soybean; [4]
  Soybean plant response rating: 30
ducksalad; 16 g ai/ha, scale 0 to 100
  Ducksalad plant response rating: 0
ducksalad; 31 g ai/ha, scale 0 to 100
  Ducksalad plant response rating: 0
ducksalad; 62 g ai/ha, scale 0 to 100 (0 no effect, 100 complete control)
  Ducksalad plant response rating: 20
ducksalad; 125 g ai/ha, scale of 0 to 100, 0 is no effect, 100 is complete control
  Ducksalad plant response rating: 40
